# Laboratory results as given in ChEMBL document CHEMBL3885881, “DrugMatrix”.
# Organism: Rattus norvegicus
# Assay: DrugMatrix - Regimen: Daily Repeat
# Assay type: toxicity, organism-based, Sprague-Dawley
# Design: regimen Daily Repeat, gender Male, age 6-8 weeks
# Details: in vivo, po, 0 mg/kg, route oral GAVAGE, dose level Control, […]; for ABSOLUTE BASOPHIL / ABSOLUTE EOSINOPHIL / ABSOLUTE LYMPHOCYTE / ABSOLUTE MONOCYTE / ABSOLUTE SEGMENTED NEUTROPHIL / BASOPHIL / EOSINOPHIL / ERYTHROCYTE COUNT / HEMATOCRIT / HEMOGLOBIN / LEUKOCYTE COUNT / LYMPHOCYTE / MEAN CORPUSCULAR HEMOGLOBIN / MEAN CORPUSCULAR HEMOGLOBIN CONCENTRATION / MEAN CORPUSCULAR VOLUME / MONOCYTE / NEUTROPHIL / NUCLEATED RED BLOOD CELLS / PLATELET COUNT: tissue Blood; for ALANINE AMINOTRANSFERASE / ALKALINE PHOSPHATASE / ASPARTATE AMINOTRANSFERASE / BLOOD UREA NITROGEN / CARBON DIOXIDE / CHLORIDE / CHOLESTEROL / CREATINE PHOSPHOKINASE / CREATININE / GLUCOSE / LACTATE DEHYDROGENASE / LIPASE / PHOSPHORUS / POTASSIUM / SODIUM / TOTAL BILIRUBIN / TOTAL PROTEIN / URIC ACID: tissue Plasma
compound,measurement,setting,value
CC(=O)[C@H]1CC[C@H]2[C@@H]3CCC4=CC(=O)CC[C@]4(C)[C@H]3CC[C@]12C [PROGESTERONE],ABSOLUTE BASOPHIL,"72 h, time 3 day",0 CELLS/uL
same,ABSOLUTE EOSINOPHIL,"72 h, time 3 day",41.83 CELLS/uL
same,ABSOLUTE LYMPHOCYTE,"72 h, time 3 day",8545.5 CELLS/uL
same,ABSOLUTE MONOCYTE,"72 h, time 3 day",240 CELLS/uL
same,ABSOLUTE SEGMENTED NEUTROPHIL,"72 h, time 3 day",906 CELLS/uL
same,BASOPHIL,"72 h, time 3 day",0%
same,EOSINOPHIL,"72 h, time 3 day",0.33%
same,ERYTHROCYTE COUNT,"72 h, time 3 day",5.6 x10E6/uL
same,HEMATOCRIT,"72 h, time 3 day",35.4%
same,HEMOGLOBIN,"72 h, time 3 day",13.42 G/DL
same,LEUKOCYTE COUNT,"72 h, time 3 day",9.73 x10E3/uL
same,LYMPHOCYTE,"72 h, time 3 day",87.83%
same,MEAN CORPUSCULAR HEMOGLOBIN,"72 h, time 3 day",23.98 pg
same,MEAN CORPUSCULAR HEMOGLOBIN CONCENTRATION,"72 h, time 3 day",37.92 G/DL
same,MEAN CORPUSCULAR VOLUME,"72 h, time 3 day",63.3 fL
same,MONOCYTE,"72 h, time 3 day",2.5%
same,NEUTROPHIL,"72 h, time 3 day",9.33%
same,NUCLEATED RED BLOOD CELLS,"72 h, time 3 day",0 /100WBC
same,PLATELET COUNT,"72 h, time 3 day",1032 x10E3/uL
same,ALANINE AMINOTRANSFERASE,"72 h, time 3 day",72.83 u/L
same,ALKALINE PHOSPHATASE,"72 h, time 3 day",322.83 u/L
same,ASPARTATE AMINOTRANSFERASE,"72 h, time 3 day",102.67 u/L
same,BLOOD UREA NITROGEN,"72 h, time 3 day",12 mg/dL
same,CARBON DIOXIDE,"72 h, time 3 day",34.33 mmol/L
same,CHLORIDE,"72 h, time 3 day",97.67 MEQ/L
same,CHOLESTEROL,"72 h, time 3 day",82.5 mg/dL
same,CREATINE PHOSPHOKINASE,"72 h, time 3 day",410.33 u/L
same,CREATININE,"72 h, time 3 day",0.18 mg/dL
same,GLUCOSE,"72 h, time 3 day",164.5 mg/dL
same,LACTATE DEHYDROGENASE,"72 h, time 3 day",119.5 u/L
same,LIPASE,"72 h, time 3 day",11.83 u/L
same,PHOSPHORUS,"72 h, time 3 day",9.52 mg/dL
same,POTASSIUM,"72 h, time 3 day",5.56 MEQ/L
same,SODIUM,"72 h, time 3 day",142.48 MEQ/L
same,TOTAL BILIRUBIN,"72 h, time 3 day",0.18 mg/dL
same,TOTAL PROTEIN,"72 h, time 3 day",5.77 G/DL
same,URIC ACID,"72 h, time 3 day",0.48 mg/dL
same,ABSOLUTE BASOPHIL,"120 h, time 5 day",0 CELLS/uL
same,ABSOLUTE EOSINOPHIL,"120 h, time 5 day",0 CELLS/uL
same,ABSOLUTE LYMPHOCYTE,"120 h, time 5 day",9065 CELLS/uL
same,ABSOLUTE MONOCYTE,"120 h, time 5 day",341.33 CELLS/uL
same,ABSOLUTE SEGMENTED NEUTROPHIL,"120 h, time 5 day",527 CELLS/uL
same,BASOPHIL,"120 h, time 5 day",0%
same,EOSINOPHIL,"120 h, time 5 day",0%
same,ERYTHROCYTE COUNT,"120 h, time 5 day",5.25 x10E6/uL
same,HEMATOCRIT,"120 h, time 5 day",34.08%
same,HEMOGLOBIN,"120 h, time 5 day",13.5 G/DL
same,LEUKOCYTE COUNT,"120 h, time 5 day",9.93 x10E3/uL
same,LYMPHOCYTE,"120 h, time 5 day",91.17%
same,MEAN CORPUSCULAR HEMOGLOBIN,"120 h, time 5 day",25.7 pg
same,MEAN CORPUSCULAR HEMOGLOBIN CONCENTRATION,"120 h, time 5 day",39.62 G/DL
same,MEAN CORPUSCULAR VOLUME,"120 h, time 5 day",64.93 fL
same,MONOCYTE,"120 h, time 5 day",3.33%
same,NEUTROPHIL,"120 h, time 5 day",5.5%
same,NUCLEATED RED BLOOD CELLS,"120 h, time 5 day",0 /100WBC
same,PLATELET COUNT,"120 h, time 5 day",1077.5 x10E3/uL
same,ALANINE AMINOTRANSFERASE,"120 h, time 5 day",57.83 u/L
same,ALKALINE PHOSPHATASE,"120 h, time 5 day",319.17 u/L
same,ASPARTATE AMINOTRANSFERASE,"120 h, time 5 day",83.33 u/L
same,BLOOD UREA NITROGEN,"120 h, time 5 day",13.67 mg/dL
same,CARBON DIOXIDE,"120 h, time 5 day",30.83 mmol/L
same,CHLORIDE,"120 h, time 5 day",98.33 MEQ/L
same,CHOLESTEROL,"120 h, time 5 day",64.83 mg/dL
same,CREATINE PHOSPHOKINASE,"120 h, time 5 day",263.67 u/L
same,CREATININE,"120 h, time 5 day",0.2 mg/dL
same,GLUCOSE,"120 h, time 5 day",182.83 mg/dL
same,LACTATE DEHYDROGENASE,"120 h, time 5 day",124 u/L
same,LIPASE,"120 h, time 5 day",10.5 u/L
same,PHOSPHORUS,"120 h, time 5 day",10 mg/dL
same,POTASSIUM,"120 h, time 5 day",5.78 MEQ/L
same,SODIUM,"120 h, time 5 day",142.48 MEQ/L
same,TOTAL BILIRUBIN,"120 h, time 5 day",0.2 mg/dL
same,TOTAL PROTEIN,"120 h, time 5 day",6 G/DL
same,URIC ACID,"120 h, time 5 day",0.7 mg/dL
